These results are taken from PubChem BioAssay (NCI).

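All cell lines were grown in 96-well plates and treated with compound for 48 hours. Abbreviation: GI50, concentration required for 50% inhibition of growth. At the TGI there is no net growth.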

Test systems include HT29 colon; MOLT-4 leukemia; NCI-H522 lung; NCI/ADR-RES ovarian; OVCAR-3 ovarian; OVCAR-4 ovarian; OVCAR-5 ovarian; SK-MEL-2 melanoma; SNB-75 CNS; SR leukemia.
What all share (assay): NCI tumour cell line growth inhibition, 48 h

In the case of `Clc1nc(Cl)c2ncn(Cc3ccc(Cn4cnc5c(Cl)nc(Cl)nc54)cc3)c2n1`, the TGI is 16.4 µM in the experiment with HT29 colon; 16.1 µM in the experiment with MOLT-4 leukemia; 25 µM in the experiment with NCI-H522 lung; 28.8 µM in the experiment with NCI/ADR-RES ovarian; 25.6 µM in the experiment with OVCAR-3 ovarian; 28.6 µM with OVCAR-4 ovarian. For the same molecule, the TGI with OVCAR-5 ovarian amounted to 10.9 µM; with SK-MEL-2 melanoma, 34.9 µM; in the experiment with SNB-75 CNS it was 37.6 µM; in the experiment with SR leukemia, 8.08 µM. For the same molecule, the GI50 was 3.88 µM in the experiment with MOLT-4 leukemia; 5.65 µM in the experiment on NCI-H522 lung; 7.64 µM in the experiment on NCI/ADR-RES ovarian; 8.68 µM in the experiment with OVCAR-3 ovarian; 13.6 µM in the experiment on OVCAR-4 ovarian; 2.03 µM in the experiment with OVCAR-5 ovarian. The GI50 in the experiment on SK-MEL-2 melanoma is 10.8 µM; with SR leukemia, 0.287 µM.
For `C=C1c2c(Cl)ccc(O)c2C(O)=C2C(=O)[C@]3(O)C(O)=C(C(N)=O)C(=O)[C@@H](N(C)C)[C@@H]3[C@@H](O)[C@H]12`, the GI50 was 1.55 µM in the experiment on HT29 colon; 1.89 µM in the experiment with MOLT-4 leukemia; 1.01 µM in the experiment with NCI-H522 lung; 2.43 µM in the experiment on NCI/ADR-RES ovarian; 1.36 µM with OVCAR-3 ovarian; 0.347 µM with OVCAR-4 ovarian. The GI50 in the experiment on OVCAR-5 ovarian was 2.09 µM; in the experiment on SK-MEL-2 melanoma, 0.727 µM; with SNB-75 CNS it was 0.845 µM; in the experiment with SR leukemia, 1.58 µM. The TGI is 6.18 µM in the experiment on HT29 colon; 12.3 µM in the experiment on MOLT-4 leukemia; 3.06 µM in the experiment on NCI-H522 lung; over 50 µM in the experiment with NCI/ADR-RES ovarian; 5.25 µM with OVCAR-3 ovarian; 9.66 µM in the experiment with OVCAR-4 ovarian. Moreover, the TGI was 25.4 µM in the experiment with OVCAR-5 ovarian, 1.98 µM with SK-MEL-2 melanoma, 3.61 µM in the experiment on SNB-75 CNS and over 50 µM in the experiment on SR leukemia.
`CC(Br)C(=O)Nc1ccc(C(=O)O)c(O)c1` (stereo not drawn): the TGI with HT29 colon is over 100 µM; with MOLT-4 leukemia it was over 100 µM; with NCI-H522 lung, 47.1 µM; in the experiment with NCI/ADR-RES ovarian, over 100 µM; in the experiment with OVCAR-3 ovarian, 73.7 µM; with OVCAR-4 ovarian, over 100 µM. The TGI with OVCAR-5 ovarian, with SK-MEL-2 melanoma, with SNB-75 CNS and with SR leukemia was over 100 µM throughout.
Take `O=S(=O)(NCCNc1nccc(-c2c(-c3ccc(F)cc3)nc3sccn23)n1)c1ccccc1`: the GI50 with HT29 colon was 2.31 µM; in the experiment with MOLT-4 leukemia, 4.84 µM; with NCI/ADR-RES ovarian it was 5.6 µM; with OVCAR-3 ovarian it was 11.3 µM; in the experiment on OVCAR-4 ovarian, 5.6 µM; with OVCAR-5 ovarian it was 81.1 µM. Moreover, the GI50 was 7.5 µM in the experiment on SK-MEL-2 melanoma, 1.61 µM in the experiment with SNB-75 CNS and 3.46 µM with SR leukemia. Moreover, the TGI is over 100 µM with HT29 colon; 57.5 µM in the experiment with MOLT-4 leukemia; over 100 µM with NCI/ADR-RES ovarian; 76 µM in the experiment on OVCAR-3 ovarian; over 100 µM in the experiment with OVCAR-4 ovarian; over 100 µM in the experiment with OVCAR-5 ovarian. Also, the values for the TGI with SK-MEL-2 melanoma, with SNB-75 CNS and with SR leukemia were 26.6 µM, 56.2 µM and over 100 µM, respectively.
`NCCSCCc1ccccc1`: the TGI in the experiment on HT29 colon, in the experiment on NCI-H522 lung, in the experiment with NCI/ADR-RES ovarian, with OVCAR-3 ovarian, with OVCAR-4 ovarian and in the experiment on OVCAR-5 ovarian was over 100 µM each time. Further, the TGI with SK-MEL-2 melanoma, in the experiment on SNB-75 CNS and with SR leukemia was over 100 µM each time.
For `CO[C@H]1CC(c2ccc[nH]2)=N[C@]12O[C@@H](C)C[C@@H]1CCCCCCCc3ccc([nH]3)[C@H]12`, the GI50 in the experiment on HT29 colon is 1.04 µM; in the experiment with MOLT-4 leukemia, 1.01 µM; in the experiment with NCI-H522 lung it was 1.29 µM; in the experiment with NCI/ADR-RES ovarian, 1.1 µM; with OVCAR-3 ovarian it was 0.942 µM; with OVCAR-4 ovarian it was 0.508 µM. The GI50 with OVCAR-5 ovarian is 1.25 µM; in the experiment with SK-MEL-2 melanoma it was 1.03 µM; in the experiment with SNB-75 CNS, 0.825 µM; in the experiment on SR leukemia it was 0.72 µM. The TGI was over 33.3 µM in the experiment with HT29 colon; 13.6 µM in the experiment on MOLT-4 leukemia; 9.98 µM in the experiment with NCI-H522 lung; 9.9 µM with NCI/ADR-RES ovarian; 5.62 µM in the experiment on OVCAR-3 ovarian; 22.2 µM in the experiment on OVCAR-4 ovarian. The TGI in the experiment with OVCAR-5 ovarian worked out at 6.22 µM; in the experiment on SK-MEL-2 melanoma, 4.21 µM; in the experiment on SNB-75 CNS, 2.79 µM; in the experiment on SR leukemia, 4.93 µM.
As to `Oc1ccc(Cl)cc1CNc1nc2ccccc2[nH]1`, the GI50 with HT29 colon is 17.2 µM; in the experiment on MOLT-4 leukemia, 10.7 µM; with NCI-H522 lung, 11.9 µM; in the experiment on NCI/ADR-RES ovarian, 11.5 µM; in the experiment with OVCAR-3 ovarian, 12.7 µM; with OVCAR-4 ovarian it was 11.4 µM. Also, the GI50 in the experiment on OVCAR-5 ovarian was 17.8 µM; in the experiment with SK-MEL-2 melanoma it was 15.9 µM; in the experiment on SNB-75 CNS, 4.58 µM; in the experiment on SR leukemia it was 13.4 µM. Further, the TGI was 35.5 µM in the experiment on HT29 colon; over 100 µM in the experiment with MOLT-4 leukemia; 27.7 µM in the experiment on NCI-H522 lung; 37.8 µM in the experiment on NCI/ADR-RES ovarian; 29 µM in the experiment with OVCAR-3 ovarian; 37.5 µM in the experiment with OVCAR-4 ovarian. Also, the TGI in the experiment with OVCAR-5 ovarian is 34.4 µM; with SK-MEL-2 melanoma it was 33 µM; with SNB-75 CNS, 21.6 µM; with SR leukemia, 59.4 µM.
For `CSc1cccc(NC(=O)OC2CCCCCCCCCCC2)c1`, the TGI in the experiment with HT29 colon was 43.8 µM; in the experiment with MOLT-4 leukemia, over 100 µM; in the experiment with NCI-H522 lung it was 37.1 µM; in the experiment on NCI/ADR-RES ovarian, 64.5 µM; in the experiment with OVCAR-3 ovarian, 29.6 µM; in the experiment with OVCAR-4 ovarian, 45.6 µM. The TGI in the experiment with OVCAR-5 ovarian is over 100 µM; in the experiment on SK-MEL-2 melanoma it was 39.4 µM; in the experiment with SNB-75 CNS, over 100 µM; with SR leukemia it was over 100 µM.
`COc1ccc(-c2nn(-c3cccc(NC(=O)c4ccc(N5CCOCC5)c(C(F)(F)F)c4)c3)cc2-c2ccncc2)cc1Cl`: the GI50 in the experiment with HT29 colon was 1.72 µM; in the experiment on MOLT-4 leukemia it was 4.5 µM; in the experiment with NCI-H522 lung, 2.77 µM; in the experiment on NCI/ADR-RES ovarian, 3.41 µM; with OVCAR-4 ovarian, 36.2 µM; in the experiment on OVCAR-5 ovarian it was over 50 µM. For the same molecule, the results for the GI50 with SK-MEL-2 melanoma, in the experiment with SNB-75 CNS and in the experiment on SR leukemia were 16.3 µM, 0.797 µM and 1.62 µM, respectively. The TGI with HT29 colon is over 50 µM; in the experiment on MOLT-4 leukemia it was over 50 µM; with NCI-H522 lung, 34.4 µM; in the experiment with NCI/ADR-RES ovarian it was 24.5 µM; in the experiment on OVCAR-4 ovarian, over 50 µM; with OVCAR-5 ovarian, over 50 µM. Also, the TGI in the experiment with SK-MEL-2 melanoma is over 50 µM; in the experiment with SNB-75 CNS, 4.95 µM; in the experiment on SR leukemia, over 50 µM.
